Values quoted from earlier work in publication PMC2787808 (Peptides, 2009).

Key:
[1] = test system: G17-Gly binding sites on DLD-1 cells; settings: previous study; ref [11]
HT-29 cells = settings: ref [2]

pGlu-Gly-Pro-Trp-Leu-(Glu)5-Ala-Tyr [G17(1–12)]
Binding sites and affinity on DLD-1 cells [1]: binds to two sites | Stimulation of proliferation of HT-29 cells (HT-29 cells): stimulates nonbiphasic proliferation
